In a melting point compilation (Tetko et al.; mined from patent text by program, amines drawn as free bases though some values may be those of a salt):

Row | SMILES | melting point [°C]
1 | COc1cccc(CN2CCCCc3cc(CN(O)C(N)=O)ccc32)c1 | 38 to 42
2 | N#Cc1cc2c(cc1C(F)(F)F)[nH]c(=O)c(=O)n2OCC(=O)O | 257
3 | CCCCCN(C)C(=O)c1ccc(Cl)nn1 | 98 to 101
4 | O=C(c1ccccc1)C(c1ccc(Cl)cc1Cl)C(F)n1cncn1 (configuration not stated) | 104 to 108
5 | CN1CCC(OC(c2cccc(SCCNC(N)=O)c2)c2nc3ccccc3[nH]2)CC1 (configuration not stated) | 136
6 | CC(C)(C)OC(=O)CN1C(=O)[C@H](N)CCc2ccccc21 | 113 to 115
7 | COC(=O)c1ccccc1S(=O)(=O)NC(=O)Nc1nc(CSc2ccccn2)cc(OC)n1 | 175 to 181
8 | Cc1ccc(NC(=O)c2cccc(C(F)(F)F)c2)cc1-c1ccc2cnncc2c1 | 97 to 100
9 | CCOC(=O)c1c2c(nc3ccccc13)CCN(C(=O)OCC)CC2 | 94
10 | O=C(Nc1cc(Cl)cc(C(F)(F)F)c1)Oc1ccc([N+](=O)[O-])cc1 | 144 to 146
11 | CN(C)c1cc2c(=O)n(NS(C)(=O)=O)c(=O)[nH]c2cc1C(F)(F)F | 254 to 272
12 | COC(=O)C1=C(C)NC(C)=C(C(=O)OCC(O)CO)C1c1cccc([N+](=O)[O-])c1 (configuration not stated) | 49 to 53
13 | CCOP(=O)(OCC)C1CNc2ccc(C(F)(F)F)cc2C1 (configuration not stated) | 112
14 | CN(c1cccc2cc(C(=O)O)[nH]c12)S(=O)(=O)c1ccccc1C(F)(F)F | 211 to 212
15 | O=C1CNc2ncc(I)cc2N1Cc1cccnc1Cl | 249
16 | Cc1cc(C)cc(C(=O)N2CCN(C(=O)CNC3CCN(CCCc4ccccc4)CC3)C(c3ccc(Cl)c(Cl)c3)C2)c1 (racemic) | 52 to 54
17 | NS(=O)(=O)NC[C@H]1COc2ccc(Cl)cc2O1 | 118 to 119
18 | O=C1N(Cc2cccc(Cl)n2)c2ccccc2C12COc1cc3c(cc12)OCCO3 (configuration not stated) | 181 to 182
19 | O=C1COC(CCOC(=O)c2ccccc2)(c2ccc(F)c(F)c2)CN1 (configuration not stated) | 92
20 | CC1C(=O)NC(c2ccc(NC(=O)CCl)cc2)c2ccccc21 (configuration not stated) | 238 to 239
21 | CCCc1nc2cccc(C(=S)OC)c2n1Cc1ccc(-c2ccccc2C#N)cc1 | 107 to 108
22 | CC(C)CC(C(N)=O)N1C(=O)c2ccccc2C1=O (configuration not stated) | 173 to 176
23 | COc1cc2c(cc1OC)[C@@H]1CCCC[C@@H]1N=C2c1ccc(N)cc1 (racemic) | 160 to 161
24 | O=C1c2ccccc2C(=O)N1OCC1COCOC1 | 98 to 106
25 | CNC(=O)c1ccc(C(=O)OC)cc1 | 126

Row | SMILES | melting point [°C]
26 | CN1C(=O)C(c2cccc(-c3cccnc3F)c2)(c2cnn(CC(F)(F)F)c2)N=C1N (configuration not stated) | 104 to 106
27 | Cc1ccc(C(=O)N2CCOCC2)cc1[N+](=O)[O-] | 108 to 110
28 | CCc1nn2ccc3c(c2c1CCNC(C)=O)CCO3 | 161 to 162
29 | CCC(CC)Nc1ncnc2c1ncn2C | 107 to 109
30 | COC(=O)C(=CNc1c(-c2ccccc2)csc1C(=O)O)SC | 90 to 92
31 | CCOC(=O)c1ncn2c1C(C)N=C(c1ccccc1)c1cc(C#C[Si](C)(C)C)ccc1-2 (configuration not stated) | 160 to 162
32 | CC(=Cc1cc([N+](=O)[O-])ccc1Cl)C(=O)O | 228 to 230
33 | Cc1cccc2c1C(=O)N1CC[C@H]1C(=O)N2 | 159 to 160
34 | CC1(c2ccc(S(N)(=O)=O)cc2)Cc2cc(OCC(=O)O)c(Cl)c(Cl)c2C1=O (configuration not stated) | 258 to 260
35 | O=C(NC1N=C(c2ccccc2F)c2ccccc2NC1=O)c1ccccc1Cl (racemic) | 224
36 | COc1cc2ncnc(NC3=CC(=O)C(N4CCCCC4)=CC3=O)c2cc1OC | 226 to 227
37 | COc1ccc(C=CC(=O)c2c(OC)cc(OC)cc2OC(=O)c2ccccc2)cc1 | 134
38 | CS(=O)(=O)Nc1cc2occ([N+](=O)[O-])c(=O)c2cc1Oc1ccccc1 | 225 to 227
39 | CCOC(=O)Cc1ccc(NC(=O)C(CC(C)C)NS(=O)(=O)c2ccc(Cl)cc2)cc1 (racemic) | 117 to 120
40 | COc1ccc(C(=O)NC2N=C(c3ccccc3F)c3ccccc3NC2=O)cc1OC (racemic) | 206 to 208
41 | Nc1ccc(S)c(C(F)(F)F)c1 | 35 to 36.5
42 | COC(=O)c1cc(Cl)ccc1NS(=O)(=O)c1ccc(C)cc1 | 112 to 114
43 | Cc1cccc(-c2nnc(Nc3ccc(Br)c(Cl)c3)s2)c1 | 230 to 231
44 | Nc1nc2ccccc2c2sc(C=Cc3ccccc3)nc12 | 239 to 241
45 | O=C(c1cc2c(cc1Cl)OCO2)N1CCOCC1 | 155
46 | O=C(O)Cc1c[nH]c2nc(Nc3ccccc3)nn2c1=O | 279 to 281
47 | CC(C)(O)c1cccc(-c2ccc3nc(-c4ccc(Cl)cc4)cn3c2)c1 | 166 to 168
48 | O=C1c2ccccc2CN1CCOc1ccc(CO)cc1 | 106 to 107
49 | CC(C)c1ccc(OCC(=O)Cl)cc1 | 104 to 105
50 | CSc1cccc(-n2ncc(-c3ccc(S(C)(=O)=O)cc3)c(-c3ccc(F)cc3)c2=O)c1 | 196

Row | SMILES | melting point [°C]
51 | Cc1nc2c3c(c(C(=O)NCC(O)CO)cc2n1C)CCC(c1ccccc1)O3 (configuration not stated) | 268 to 270
52 | CCc1nc(C)cn1CO | 83.1 to 86.3
53 | O=S(=O)(Cl)c1cccc2c1COC2 | 40 to 43
54 | N#Cc1cccc2c1C(=O)C(OCc1ccccc1)=C(OCc1ccccc1)C2=O | 118 to 121
55 | COc1cc(Nc2c(C#N)cnc3cc(-c4ccc(CN5CCOCC5)s4)ccc23)c(Cl)cc1Cl | 188
56 | CCOC(=O)C(=O)N1Cc2cc(OC)ccc2C(Cc2c(Cl)cncc2Cl)=N1 | 140 to 142
57 | COc1ccc(-c2ccc(C=C3SC(=O)NC3=O)cc2)cc1C12CC3CC(CC(C3)C1)C2 | 304 to 306
58 | N#CCN1CCC(=C2c3cc(F)ccc3CCn3ccnc32)CC1 | 198
59 | CCOCCOc1ccc(-c2ccc3c(c2)C=C(C(=O)Nc2ccc(CN(C)C4CCOCC4)cc2)CCS3(=O)=O)cc1C | 212 to 213
60 | Cc1nccn1-c1nc(-c2ccc(Cl)cc2)c(CCC(N)=O)o1 | 215 to 216
61 | COc1ccc(N(CCCC(=O)O)C(=O)C(C)N(C(C)=O)c2ccc(OC)cc2)cc1 (configuration not stated) | 155 to 157
62 | CCOP(=O)(OCC)C(CCc1cc(C)nc2cc(OC(=O)c3ccccc3)nn12)P(=O)(OCC)OCC | 56 to 57
63 | CCCCCCCCCCCC(O)CC1COC1=O (configuration not stated) | 44.5 to 46
64 | CC(=O)N1CCCc2ccc(S(=O)(=O)C[N+](=O)[O-])cc21 | 155
65 | COc1cc(C)nc(NC(=O)NS(=O)(=O)c2c(Br)csc2C(=O)c2cccs2)n1 | 106
66 | FC(F)(F)c1nn(-c2c(Cl)cc(Cl)cc2Cl)cc1Br | 93 to 94
67 | C=CCN1C(=O)CC(=O)N(c2ccccc2)c2cc(Cl)ccc21 | 199 to 201
68 | CC12C=CC(=O)C=C1CCC1C3CC4OCOC4(C(=O)CO)C3(C)CC(O)C12F (configuration not stated) | 262
69 | Cn1c(C(F)(F)F)cc(=O)n(-c2ccc(Cl)c(CO)c2)c1=O | 192 to 194
70 | O=C(NCc1ccc(Cl)cc1)c1cn2c3c(cc(CN4CCOCC4)cc3c1=O)CN(Cc1ccccc1)C2=O | 201 to 204
71 | Cc1c(N2C[C@@H](N)[C@@H](C(F)F)C2)c(F)cc2c(=O)c(C(=O)O)cn([C@@H]3C[C@@H]3F)c12 | 214 to 216
72 | Cc1nc2ccc(-c3ccc(OCC4(NC(=O)OCc5ccccc5)COC4)cc3)nn2c1-c1cnc(N)c(C(F)(F)F)c1 | 209 to 212
73 | Cc1cccc(C#N)c1[N+](=O)[O-] | 74.5 to 77
74 | C[C@H](CO)Nc1nc(SCc2cccc(F)c2F)nc2c1=NC(=O)C(=O)N=2 | 243 to 246
75 | CCCCc1c(/C=C/C(=O)O)ccc2c(OC)cccc12 | 202 to 204

Row | SMILES | melting point [°C]
76 | Cc1ccsc1C=Nc1cc([N+](=O)[O-])ccc1O | 169 to 171
77 | CC[C@@H]1O[C@](/C=C/C2CC2)(C(F)(F)F)c2cc(Cl)ccc2NC1=O (relative stereo) | 147 to 148
78 | CCOC(=O)c1nc(/C=C/c2ccc([N+](=O)[O-])o2)no1 | 138 to 139
79 | CC(C)(C)OC(=O)C1CCN(C(=O)C2CN(c3ccc(-c4noc(=O)[nH]4)cc3)C(=O)O2)CC1 (configuration not stated) | 171 to 175
80 | CC[Si](C#Cc1c2ccccc2c2ccc3c(C#C[Si](CC)(CC)CC)c4ccccc4c4ccc1c2c34)(CC)CC | 300 to 307
81 | COC(=O)C1(C(F)(F)CCCCOc2ccc(Cl)cc2)CO1 (configuration not stated) | 40 to 48
82 | COc1cc(C)c2c(c1C)C(SC)C(=O)N2 (configuration not stated) | 226 to 227
83 | CCOC(=O)c1c(N)c(Cl)cc2c1OCO2 | 77 to 78
84 | CCCOc1ccc(F)c2c(=O)c(-c3ccc(OC)cc3)cn(CCN3CCOCC3)c12 | 206 to 208
85 | CC(C)(C)OC(=O)c1ncn2c1[C@@H]1CCCN1C(=O)c1c(Br)cccc1-2 | 206 to 208
86 | COC(C(=O)O)C(=O)Oc1cccc(-c2cn3c(n2)sc2ccccc23)c1 (configuration not stated) | 110 to 113
87 | CC(C)(C)c1cc(CP(=O)(Oc2ccccc2)Oc2ccccc2)cc(C(C)(C)C)c1O | 130
88 | O=C(O)[C@H](Cc1cncn1COCc1ccccc1)NS(=O)(=O)CCc1ccccc1 | 223 to 233
89 | CCCS(=O)(=O)ON=C(Cl)c1ccc(C)cc1 | 57.5 to 60.5
90 | Nc1cc(NC(=O)c2ccc(F)c(F)c2)ccc1F | 135 to 142
91 | CSc1ccc(CN(C2CCOCC2)S(=O)(=O)c2ccc(Cl)cc2)cc1 | 124 to 127
92 | CCN(CC)c1ccc(C2(c3ccc(N(CC)CC)cc3N(CC)CC)OC(=O)c3ccccc32)c(Cl)c1 (configuration not stated) | 141 to 143
93 | NC(=O)c1nnn(Cc2c(Cl)cccc2Cl)c1N | 243 to 245
94 | CC1(c2ccc(S(C)(=O)=O)cc2)OC=C(Br)C(=O)C1Oc1ccc(F)cc1F (configuration not stated) | 230
95 | CC1=NC(NC(=O)Nc2cccc(C)c2)C(=O)N(CC(=O)N2CCC(N3CCCCC3)CC2)c2c(C)cccc21 (configuration not stated) | 214 to 217
96 | Cc1cc([C@@H]2CCC(=O)N2)on1 | 90 to 91
97 | CC1=CC(OC(=O)c2ccc(N)c(N)c2)C(O)C(C)(C)CC1=O (configuration not stated) | 136 to 137
